The source of these data is US20130267551A1, “SUBSTITUTED HYDROGENATED THIENO-PYRROLO[3,2-C]PYRIDINE, LIGANDS, A PHARMACEUTICAL COMPOSITION AND A METHOD FOR USING THE ABOVE” (ALLA CHEM, LLC, priority 2010, published 2013).

One test deals with Adrenergic α1A. Briefly: competitive radioligand binding, Adrenergic α1A. To be noted: compound concentration of 1 μM. The method, then:
(§1) Profiles of pharmacological activity of thieno-pyrrolo[3,2-c]pyridines of the general formula 1. Biological activity test of compounds of the general formula 1 was carried out in the setting of competitive radioligand binding [I. Okun, S. Tkachenko, A. Khvat, et al., Current Alzheimer Research, 7(2), 97-112 (2010)], using a wide range of therapeutic targets including G-protein coupled receptors (GPCR), ion channels and neuromediator transporters. The tested activity was determined by quantitative measurement of radio-labelled ligand displacement by tested compounds of the general formula 1 at their concentration of 1 μM.

The next test deals with Adrenergic α1B. Briefly: competitive radioligand binding, Adrenergic α1B. To be noted: compound concentration of 1 μM. How it is done:
as §1

The target in the next test is T1, Adrenergic α1D (Homo sapiens, UniProt P25100).
T1 sequence (P25100 1-572): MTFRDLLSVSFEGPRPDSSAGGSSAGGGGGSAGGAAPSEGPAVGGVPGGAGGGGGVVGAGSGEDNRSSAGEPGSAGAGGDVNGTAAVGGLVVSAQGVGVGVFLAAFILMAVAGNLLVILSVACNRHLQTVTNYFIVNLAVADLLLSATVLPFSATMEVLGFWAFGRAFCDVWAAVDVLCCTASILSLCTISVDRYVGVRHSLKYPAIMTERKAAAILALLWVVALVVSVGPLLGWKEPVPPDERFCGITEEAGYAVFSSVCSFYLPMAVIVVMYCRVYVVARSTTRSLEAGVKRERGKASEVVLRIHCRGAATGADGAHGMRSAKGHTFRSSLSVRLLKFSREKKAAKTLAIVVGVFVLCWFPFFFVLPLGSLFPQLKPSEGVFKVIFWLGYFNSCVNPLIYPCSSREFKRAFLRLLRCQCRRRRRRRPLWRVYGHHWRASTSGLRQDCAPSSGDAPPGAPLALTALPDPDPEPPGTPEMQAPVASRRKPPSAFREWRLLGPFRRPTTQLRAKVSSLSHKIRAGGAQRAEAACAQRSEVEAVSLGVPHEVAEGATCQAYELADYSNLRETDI
Briefly: competitive radioligand binding, Adrenergic α1D. To be noted: compound concentration of 1 μM; read-out: radio-labelled ligand displacement, Adrenergic α1D. The method, then: as §1

The target of the next test is T2, Adrenergic α2A (Homo sapiens, UniProt P08913).
T2 sequence (P08913 1-465): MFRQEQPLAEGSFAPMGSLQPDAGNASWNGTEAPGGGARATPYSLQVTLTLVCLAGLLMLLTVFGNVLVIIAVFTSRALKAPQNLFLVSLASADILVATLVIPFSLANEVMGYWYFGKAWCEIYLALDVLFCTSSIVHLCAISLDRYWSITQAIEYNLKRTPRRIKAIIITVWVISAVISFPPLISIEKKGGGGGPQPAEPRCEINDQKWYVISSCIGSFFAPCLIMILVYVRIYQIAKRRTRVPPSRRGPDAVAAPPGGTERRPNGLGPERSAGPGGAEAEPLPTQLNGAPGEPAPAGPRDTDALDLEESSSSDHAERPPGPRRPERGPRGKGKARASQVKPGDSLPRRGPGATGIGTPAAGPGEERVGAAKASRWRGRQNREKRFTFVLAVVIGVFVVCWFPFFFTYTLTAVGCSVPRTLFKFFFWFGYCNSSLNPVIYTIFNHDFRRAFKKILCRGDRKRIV
Briefly: competitive radioligand binding, Adrenergic α2A. To be noted: read-out: radio-labelled ligand displacement, Adrenergic α2A. How it is done:
as §1

The target in the next test is Dopaminergic D1 (Homo sapiens, UniProt P21728). Briefly: competitive radioligand binding, Dopaminergic D1. To be noted: compound concentration of 1 μM; read-out: radio-labelled ligand displacement, Dopaminergic D1. The method, then: as §1
Chain of Dopaminergic D1 (P21728 whole entry): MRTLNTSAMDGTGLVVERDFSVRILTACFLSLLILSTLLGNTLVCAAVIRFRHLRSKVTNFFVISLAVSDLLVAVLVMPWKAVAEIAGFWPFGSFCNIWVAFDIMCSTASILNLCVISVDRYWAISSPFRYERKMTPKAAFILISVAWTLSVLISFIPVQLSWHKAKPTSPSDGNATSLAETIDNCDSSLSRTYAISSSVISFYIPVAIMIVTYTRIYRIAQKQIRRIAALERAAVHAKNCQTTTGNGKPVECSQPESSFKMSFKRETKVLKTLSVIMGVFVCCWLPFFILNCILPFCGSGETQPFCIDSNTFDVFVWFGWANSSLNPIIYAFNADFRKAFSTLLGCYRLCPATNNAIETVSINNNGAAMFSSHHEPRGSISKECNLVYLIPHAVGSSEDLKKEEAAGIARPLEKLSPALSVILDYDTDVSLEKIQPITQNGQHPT
The target of the next test is T3, Dopaminergic D4.2 (Homo sapiens, UniProt P21917, DEL265-296).
T3 sequence (P21917 with tags, fused parts or gaps DEL265-296): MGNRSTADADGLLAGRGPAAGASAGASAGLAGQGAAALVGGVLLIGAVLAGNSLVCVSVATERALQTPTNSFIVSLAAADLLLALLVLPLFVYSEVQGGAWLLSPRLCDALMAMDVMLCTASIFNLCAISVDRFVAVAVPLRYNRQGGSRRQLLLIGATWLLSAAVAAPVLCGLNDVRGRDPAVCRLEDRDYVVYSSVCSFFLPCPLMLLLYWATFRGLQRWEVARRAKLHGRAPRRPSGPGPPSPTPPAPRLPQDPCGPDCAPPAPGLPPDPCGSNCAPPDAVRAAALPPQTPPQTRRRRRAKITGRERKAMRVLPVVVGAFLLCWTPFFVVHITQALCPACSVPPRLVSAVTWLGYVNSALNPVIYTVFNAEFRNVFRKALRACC
Briefly: competitive radioligand binding, Dopaminergic D4.2. To be noted: compound concentration of 1 μM; read-out: radio-labelled ligand displacement, Dopaminergic D4.2. How it is done:
as §1

A further test has as its target Histaminergic H3 (Homo sapiens, UniProt Q9Y5N1). Description: competitive radioligand binding, Histaminergic H3. To be noted: compound concentration of 1 μM; read-out: radio-labelled ligand displacement, Histaminergic H3. The method, then:
as §1

A further test concerns Serotoninergic 5-HT1B. Description: competitive radioligand binding, Serotoninergic 5-HT1B. To be noted: compound concentration of 1 μM. How it is done: as §1
The next test addresses Serotoninergic 5-HT2A (Homo sapiens, UniProt P28223). Description: competitive radioligand binding, Serotoninergic 5-HT2A. To be noted: read-out: radio-labelled ligand displacement, Serotoninergic 5-HT2A. How it is done:
as §1

In a further test the target is Serotoninergic 5-HT2B (Homo sapiens, UniProt P41595). Briefly: competitive radioligand binding, Serotoninergic 5-HT2B. To be noted: read-out: radio-labelled ligand displacement, Serotoninergic 5-HT2B. How it is done: as §1
Chain of Serotoninergic 5-HT2B (P41595 whole entry): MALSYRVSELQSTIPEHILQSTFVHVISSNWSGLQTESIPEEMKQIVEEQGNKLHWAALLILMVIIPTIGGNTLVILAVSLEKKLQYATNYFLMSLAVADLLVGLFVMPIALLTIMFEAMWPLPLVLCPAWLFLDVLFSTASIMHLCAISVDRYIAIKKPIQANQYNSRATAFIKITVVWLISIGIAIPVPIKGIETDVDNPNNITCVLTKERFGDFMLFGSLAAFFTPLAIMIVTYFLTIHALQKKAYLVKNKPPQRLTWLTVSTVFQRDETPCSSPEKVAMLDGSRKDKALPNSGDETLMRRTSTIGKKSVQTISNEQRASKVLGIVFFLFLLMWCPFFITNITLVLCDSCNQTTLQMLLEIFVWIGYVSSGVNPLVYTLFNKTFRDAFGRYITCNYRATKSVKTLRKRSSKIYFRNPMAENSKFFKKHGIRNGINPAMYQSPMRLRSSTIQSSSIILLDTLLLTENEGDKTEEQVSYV
For a further test, the target named is T4, Serotoninergic 5-HT2C (Homo sapiens, UniProt P28335).
T4 sequence (P28335 33-458): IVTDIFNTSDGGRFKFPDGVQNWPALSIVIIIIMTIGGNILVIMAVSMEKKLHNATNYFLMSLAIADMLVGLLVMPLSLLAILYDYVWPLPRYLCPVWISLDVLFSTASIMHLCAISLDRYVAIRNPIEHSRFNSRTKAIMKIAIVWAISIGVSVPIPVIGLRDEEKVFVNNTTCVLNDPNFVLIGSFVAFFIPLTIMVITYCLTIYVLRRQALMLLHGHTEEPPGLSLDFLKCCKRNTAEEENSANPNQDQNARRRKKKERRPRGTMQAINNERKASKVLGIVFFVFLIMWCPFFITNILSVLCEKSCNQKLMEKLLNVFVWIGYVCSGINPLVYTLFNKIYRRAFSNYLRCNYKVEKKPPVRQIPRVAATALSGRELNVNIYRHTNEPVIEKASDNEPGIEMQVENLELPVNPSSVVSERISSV
Briefly: competitive radioligand binding, Serotoninergic 5-HT2C. To be noted: read-out: radio-labelled ligand displacement, Serotoninergic 5-HT2C. How it is done:
as §1

A further test deals with Serotoninergic 5-HT7 (Homo sapiens, UniProt P34969). Briefly: competitive radioligand binding, Serotoninergic 5-HT7. To be noted: compound concentration of 1 μM; read-out: radio-labelled ligand displacement, Serotoninergic 5-HT7. How it is done: as §1
Chain of Serotoninergic 5-HT7 (P34969 whole entry): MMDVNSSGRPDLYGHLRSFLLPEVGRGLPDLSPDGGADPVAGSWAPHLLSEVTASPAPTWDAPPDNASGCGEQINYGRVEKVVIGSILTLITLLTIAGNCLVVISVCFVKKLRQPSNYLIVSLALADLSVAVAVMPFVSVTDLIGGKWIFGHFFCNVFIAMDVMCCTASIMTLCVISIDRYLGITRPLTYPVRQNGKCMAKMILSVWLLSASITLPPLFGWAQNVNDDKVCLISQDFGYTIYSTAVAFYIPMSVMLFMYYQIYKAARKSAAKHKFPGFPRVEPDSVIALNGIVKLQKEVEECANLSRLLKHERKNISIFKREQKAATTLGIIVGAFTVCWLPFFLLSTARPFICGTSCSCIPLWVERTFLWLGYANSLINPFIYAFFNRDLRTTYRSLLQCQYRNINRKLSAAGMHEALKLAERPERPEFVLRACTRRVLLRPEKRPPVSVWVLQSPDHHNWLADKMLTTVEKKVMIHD

SMILES strings stand for the structures. Structures can show the parent of a compound that is named as a salt. Where two headings read alike, the source gives them in different places.

Chain of Histaminergic H3 (Q9Y5N1 whole entry): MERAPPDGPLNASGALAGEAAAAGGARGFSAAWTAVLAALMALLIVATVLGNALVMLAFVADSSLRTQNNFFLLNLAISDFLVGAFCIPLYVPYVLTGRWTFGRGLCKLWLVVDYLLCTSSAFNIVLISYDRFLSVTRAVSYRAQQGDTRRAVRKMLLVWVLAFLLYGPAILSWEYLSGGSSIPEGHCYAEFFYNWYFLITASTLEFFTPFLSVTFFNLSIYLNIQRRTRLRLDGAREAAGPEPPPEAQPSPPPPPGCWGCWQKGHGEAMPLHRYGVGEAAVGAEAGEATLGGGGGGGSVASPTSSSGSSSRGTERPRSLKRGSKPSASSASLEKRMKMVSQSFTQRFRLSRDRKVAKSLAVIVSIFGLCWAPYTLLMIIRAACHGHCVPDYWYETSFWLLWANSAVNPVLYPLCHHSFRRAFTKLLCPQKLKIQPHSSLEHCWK
Chain of Serotoninergic 5-HT2A (P28223 whole entry): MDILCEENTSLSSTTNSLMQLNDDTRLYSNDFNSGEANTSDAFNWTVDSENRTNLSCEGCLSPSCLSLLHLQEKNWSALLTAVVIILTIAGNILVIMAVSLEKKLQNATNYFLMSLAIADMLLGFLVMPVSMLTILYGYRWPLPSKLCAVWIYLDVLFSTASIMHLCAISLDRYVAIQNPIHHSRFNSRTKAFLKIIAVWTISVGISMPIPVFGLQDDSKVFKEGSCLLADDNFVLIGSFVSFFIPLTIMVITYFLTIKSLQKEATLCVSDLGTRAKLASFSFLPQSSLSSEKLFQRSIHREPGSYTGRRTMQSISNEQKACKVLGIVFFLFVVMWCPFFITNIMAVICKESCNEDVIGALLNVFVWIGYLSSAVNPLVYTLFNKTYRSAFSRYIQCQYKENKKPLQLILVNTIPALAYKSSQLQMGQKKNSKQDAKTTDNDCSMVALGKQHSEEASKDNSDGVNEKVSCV

Turning to `Cc1cc2c(s1)c1c(n2-c2cccc(F)c2)CCN(C)C1` [2.4(3)•HCl, 2,7-dimethyl-4-(3-fluorophenyl)-5,6,7,8-tetrahydro-4H-thieno[2′,3′:4,5]pyrrolo[3,2-c]pyridine], the radio-labelled ligand displacement, Adrenergic α1A with Adrenergic α1A was 17%. The compound further registered a radio-labelled ligand displacement, Adrenergic α1B in the test with Adrenergic α1B of 10%. Further, the inhibition at 1 µM was determined as 28% at Adrenergic α1D; 14% on Adrenergic α2A (compound concentration of 1 μM); 5% on Dopaminergic D1; 3% at Dopaminergic D4.2; 1% on Histaminergic H3; 41% on Serotoninergic 5-HT2A. Further, the inhibition at 1 µM at Serotoninergic 5-HT2B (compound concentration of 1 μM) worked out at 39%; at Serotoninergic 5-HT2C (compound concentration of 1 μM), 33%; at Serotoninergic 5-HT7, 43%. In the test with Serotoninergic 5-HT1B, this compound had a radio-labelled ligand displacement, Serotoninergic 5-HT1B of 5%.

Take `Cc1cc2c(s1)c1c(n2Cc2ccccc2)CCN(C)C1.Cl` [2.5(1)•HCl, 4-Benzyl-2,7-dimethyl-5,6,7,8-tetrahydro-4H-thieno[2′,3′:4,5]pyrrolo[3,2-c]pyridine hydrochloride]: the radio-labelled ligand displacement, Adrenergic α1A with Adrenergic α1A came out at 42%. In the test on Adrenergic α1B, the radio-labelled ligand displacement, Adrenergic α1B stood at 10%. In addition, the inhibition at 1 µM at Adrenergic α1D is 21%; at Adrenergic α2A, 34%; on Dopaminergic D1, 5%; on Dopaminergic D4.2, -3%; on Histaminergic H3, -4%; on Serotoninergic 5-HT2A, 93%. The inhibition at 1 µM on Serotoninergic 5-HT2B amounted to 91%; at Serotoninergic 5-HT2C, 84%; on Serotoninergic 5-HT7, 92%. Further, the radio-labelled ligand displacement, Serotoninergic 5-HT1B in the test on Serotoninergic 5-HT1B came out at 6%.

`Cc1ccc(Cn2c3c(c4sc(Cl)cc42)C(C)N(C)C(C)C3)cn1` (stereo not drawn) [2.5(4)•HCl, 4-(6-methylpyridin-3-ylmethyl)-6,7,8-trimethyl-2-chloro-5,6,7,8-tetrahydro-4H-thieno[2′,3′:4,5]pyrrolo[3,2-c]pyridine] registered a radio-labelled ligand displacement, Adrenergic α1A in the test on Adrenergic α1A of 51%. For the same compound, the radio-labelled ligand displacement, Adrenergic α1B in the test with Adrenergic α1B was 38%. The inhibition at 1 µM on Adrenergic α1D is 29%; on Adrenergic α2A (compound concentration of 1 μM), 42%; at Dopaminergic D1, 3%; on Dopaminergic D4.2 it was -1%; at Histaminergic H3, 9%; on Serotoninergic 5-HT2A, 91%. Moreover, the inhibition at 1 µM at Serotoninergic 5-HT2B (compound concentration of 1 μM) amounted to 78%; at Serotoninergic 5-HT2C (compound concentration of 1 μM), 91%; on Serotoninergic 5-HT7, 87%. In addition, in the test on Serotoninergic 5-HT1B, the radio-labelled ligand displacement, Serotoninergic 5-HT1B turned out to be 28%.

In turn, `Cc1cc2c(s1)c1c(n2CCc2ccccc2)CCN(C)C1.Cl` [2.6(1)•HCl, 2,7-Dimethyl-4-(2-phenylethyl)-5,6,7,8-tetrahydro-4H-thieno[2′,3′:4,5]pyrrolo[3,2-c]pyridine hydrochloride] showed a radio-labelled ligand displacement, Adrenergic α1A in the test with Adrenergic α1A of 83%. For the same compound, the radio-labelled ligand displacement, Adrenergic α1B with Adrenergic α1B was found to be 90%. The inhibition at 1 µM was 64% on Adrenergic α1D; 80% at Adrenergic α2A; 15% on Dopaminergic D1; 14% on Dopaminergic D4.2; -15% on Histaminergic H3; 99% at Serotoninergic 5-HT2A. For the same compound, the inhibition at 1 µM is 79% at Serotoninergic 5-HT2B, 89% on Serotoninergic 5-HT2C and 98% at Serotoninergic 5-HT7. In addition, the radio-labelled ligand displacement, Serotoninergic 5-HT1B in the test on Serotoninergic 5-HT1B amounted to 18%.

For the compound `CC1Cc2c(c3sc(Cl)cc3n2C#Cc2cccc(F)c2)C(C)N1C` (stereo not drawn) [2.10(3)•HCl, 6,7,8-trimethyl-4-(3-fluorophenyl)ethynyl-2-chloro-5,6,7,8-tetrahydro-4H-thieno[2′,3′:4,5]pyrrolo[3,2-c]pyridine], in the test on Adrenergic α1A, the radio-labelled ligand displacement, Adrenergic α1A was 21%. Also, in the test on Adrenergic α1B, the radio-labelled ligand displacement, Adrenergic α1B stood at 5%. Moreover, the inhibition at 1 µM on Adrenergic α1D is 11%; on Adrenergic α2A (compound concentration of 1 μM), 17%; at Dopaminergic D1, 4%; at Dopaminergic D4.2, 4%; at Histaminergic H3, -10%; at Serotoninergic 5-HT2A, 43%. Also, the inhibition at 1 µM amounted to 39% at Serotoninergic 5-HT2B (compound concentration of 1 μM), 31% at Serotoninergic 5-HT2C (compound concentration of 1 μM) and 33% at Serotoninergic 5-HT7. In addition, the radio-labelled ligand displacement, Serotoninergic 5-HT1B in the test with Serotoninergic 5-HT1B was 9%.

With `Cc1ccc(CCCn2c3c(c4scc(Cl)c42)CN(C)CC3)cn1` [2.12(5)•HCl, 7-methyl-4-[3-(6-methylpyridin-3-yl)propyl]-3-chloro-5,6,7,8-tetrahydro-4H-thieno[2′,3′:4,5]pyrrolo[3,2-c]pyridine], the radio-labelled ligand displacement, Adrenergic α1A in the test with Adrenergic α1A amounted to 98%. For the same compound, in the test on Adrenergic α1B, the radio-labelled ligand displacement, Adrenergic α1B was found to be 97%. The inhibition at 1 µM on Adrenergic α1D is 93%; at Adrenergic α2A (compound concentration of 1 μM) it was 101%; on Dopaminergic D1, 75%; at Dopaminergic D4.2, 69%; at Histaminergic H3 it was 12%; at Serotoninergic 5-HT2A, 99%. In addition, the inhibition at 1 µM stood at 95% on Serotoninergic 5-HT2B (compound concentration of 1 μM), 99% at Serotoninergic 5-HT2C (compound concentration of 1 μM) and 99% on Serotoninergic 5-HT7. The radio-labelled ligand displacement, Serotoninergic 5-HT1B in the test on Serotoninergic 5-HT1B came out at 62%.
